Laboratory results taken from patent US20110269626A1, “HERBICIDAL COMPOSITIONS COMPRISING HPPD-INHIBITORS AND METHODS OF CONTROLLING WEEDS IN TURFGRASSES” (priority 2008, published 2011).

How the values were obtained:
Format in all cases: in vivo
[1] = tested on: warm season turfgrasses; test: Safening of liquid mesotrione formulation on warm season turfgrasses (conclusion from Tables 1 and 2); settings: safener applied in combination with a liquid formulation of mesotrione to warm season turfgrasses
Excerpt: (§1) A liquid formulation of mesotrione (Callisto®) was applied to bermudagrass (Cynodon dactylon×C. dactylon) and zoysia grass (Zoysia matrella) by spray application, with and without safeners, at various rates as show in the table below. Assessments were made at 7, 14 and 21 days after application, to determine percentage growth inhibition, an percentage toxicity (chlorosis and/or burning).

[2] = tested on: bermudagrass (Cynodon dactylon×C. dactylon); test: Spray application of liquid mesotrione formulation (Callisto) with and without safeners to bermudagrass; percentage toxicity (chlorosis and/or burning)
Excerpt: as §1

[3] = tested on: zoysia grass (Zoysia matrella); test: Spray application of liquid mesotrione formulation (Callisto) with and without safeners to zoysia grass; percentage toxicity (chlorosis and/or burning)
Excerpt: as §1

[4] = herbicide 140 g ai/ha, safener 70 g ai/ha or none, 7 DAA
[5] = herbicide 140 g ai/ha, safener 70 g ai/ha or none, 14 DAA
[6] = herbicide 140 g ai/ha, safener 70 g ai/ha or none, 21 DAA
[7] = herbicide 280 g ai/ha, safener 140 g ai/ha or none, 7 DAA
[8] = herbicide 280 g ai/ha, safener 140 g ai/ha or none, 14 DAA
[9] = herbicide 280 g ai/ha, safener 140 g ai/ha or none, 21 DAA

safening [1] | SMILES | Percentage toxicity [2, 4] | Percentage toxicity [2, 5] | Percentage toxicity [2, 6] | Percentage toxicity [2, 7] | Percentage toxicity [2, 8] | Percentage toxicity [2, 9] | Percentage toxicity [3, 4] | Percentage toxicity [3, 5] | Percentage toxicity [3, 6] | Percentage toxicity [3, 7] | Percentage toxicity [3, 8] | Percentage toxicity [3, 9]
Particularly good safening | CNC(=O)Nc1ccc(S(=O)(=O)NC(=O)c2ccccc2OC)cc1 [Formula IV] | – | – | – | – | – | – | – | – | – | – | – | –
– | CS(=O)(=O)c1ccc(C(=O)C2C(=O)CCCC2=O)c([N+](=O)[O-])c1 [Mesotrione, 2-(2′-nitro-4′-methylsulphonylbenzoyl)-1,3-cyclohexanedione] | 30% | 10% | 20% | 60% | 50% | 50% | 10% | 40% | 50% | 15% | 50% | 70%
